The target of experiment [1] is T1, P5PA WT (Actinobacillus pleuropneumoniae, UniProt B0BUC2). The experiment can be described thus: Isothermal titration calorimetry (ITC), ligand titrated into P5PA. The format is binding. The procedure:
The purification method described in the P5PA protein purification section was modified as follows in order to purify apo-P5PA for ITC. Before elution, P5PAwas denatured in the gravity column. To denature P5PA, 6 M guanidine hydrochloride (GdHCl) was applied to the column, after which a refolding step was performed by stepwise addition of 4.5 M GdHCl, 3 M GdHCl, and finally 1.5 M GdHCl. The protein was then washed with lysis buffer and eluted with elution buffer ([15]). The subsequent purification steps were the same as previously described.
ITC was performed using an auto-iTC200 (Microcal) at the Structure and Biophysical Core Facility within the Peter Gilgan Centre for Research & Learning (Hospital for Sick Children, Toronto, Canada). Runs consisted of titrating ligand loaded into the injection syringe against purified protein, which was loaded into the sample cell. About 45 μM of purified P5PA was stored in ITC buffer (20 mM Tris, pH 8, and 100 mM NaCl) at 4 °C. The same buffer was used to make solutions of 300 μM G6P, 300 μM P5P, and 45 μM bovine serum albumin. P5PA, bovine serum albumin, and ITC buffer alone were titrated with P5P or G6P. The parameter setting was 2 μl/injection for a total of 20 injections. Data applied to calculate binding constants were referenced against runs performed with ligand alone to control for the heat of ligand solvation.
(In ITC the heat of successive injections is recorded.)

The next experiment has as its target T2, P5PA H203A (Actinobacillus pleuropneumoniae, UniProt B0BUC2, H229A).
T2 sequence (B0BUC2 26-343 H229A): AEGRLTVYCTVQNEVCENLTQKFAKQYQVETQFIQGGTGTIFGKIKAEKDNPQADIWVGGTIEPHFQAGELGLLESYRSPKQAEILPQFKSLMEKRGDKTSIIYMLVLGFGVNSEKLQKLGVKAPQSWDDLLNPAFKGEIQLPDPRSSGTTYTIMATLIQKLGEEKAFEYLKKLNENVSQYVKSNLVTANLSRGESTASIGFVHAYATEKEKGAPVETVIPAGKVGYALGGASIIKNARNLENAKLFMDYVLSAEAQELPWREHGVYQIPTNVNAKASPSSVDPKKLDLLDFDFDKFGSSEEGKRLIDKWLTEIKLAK
The experiment in a line: Microscale thermophoresis (MST) with fluorescently labeled P5PA mutant. The format is binding. The procedure: (§1) P5PA was fluorescently labeled using RED-NHS Second Generation Protein Labeling Kit (NanoTemper). Briefly, 90 μl of purified apo-P5PA at 10 μM was mixed with 10 μl of the provided labeling dye at 300 μM. The mixture was incubated in dark for 30 min and loaded to a special gravity column that is pre-equilibrated in PBS with 0.05% Tween-20 (PBST). After washing the column with 550 μl of PBST, another 450 μl of PBST was added to elute the fluorescently labeled apo-P5PA. The yield of the labeled P5PA was determined by 280-nm readings made on a Nanodrop.
(§2) A target compound was successively diluted in PBST by a dilution factor of two to make a total of 16 different concentrations. Then, 10 μl of the labeled P5PA was added to an equal volume of the diluted compounds and loaded to standard capillaries (NanoTemper). The Binding Affinity Mode of Monolith NT.115 (NanoTemper) was used to detect fluorescence changes and deduct Kd.
(§3) Supplementary Table2. The concentrations of protein and compounds used in MST
(§4) Labeled Protein Concentration Compound Highest Working
(§5) P5PA 25 Pyridoxal-5’-phosphate (P5P) 1.40 µM
(§6) P5PA 25 Pyridoxamine (PM) 448 mM
In general terms: MST reads how a fluorescent partner responds to local heating, with and without ligand.

A further experiment has as its target T3, P5PA Y103A (Actinobacillus pleuropneumoniae, UniProt B0BUC2, Y129A).
T3 sequence (B0BUC2 26-343 Y129A): T2 sequence (B0BUC2 26-343 H229A)
The experiment is described as above. Format: binding. The procedure: as §1, §2, §3, §4, §5, §6

Another experiment has as its target T4, P5PA T149A (Actinobacillus pleuropneumoniae, UniProt B0BUC2, T175A).
T4 sequence (B0BUC2 26-343 T175A): T2 sequence (B0BUC2 26-343 H229A)
Described as above. The format is binding. The procedure:
as §1, §2, §3, §4, §5, §6

Experiment [2] has as its target T1, P5PA WT. The experiment in a line: Microscale thermophoresis (MST) with fluorescently labeled P5PA. Format: binding. The protocol:
as §1, §2, §3, §4, §5, §6

The subject of experiment [3] is A. pleuropneumoniae pdxS and pdxT disrupted mutants. The arrangement: method as in PMID 28448619. As to conditions: supplementation with 10 μM P5P; cited from earlier work.
Experiment [4] relates to WT strain of E. coli K-12. The experiment can be described thus: E. coli growth assay in M9 minimal media supplemented with P5P. Format: cell-based, Escherichia coli. As to conditions: P5P 0 to 10 μM, 24 h incubation.
Experiment [5] deals with E. coli K-12 ΔpdxB mutant. Described as above. Format: cell-based, Escherichia coli. The procedure:
The ΔpdxB mutant of E. coli K-12 strain was obtained from the Keio collection ([45]). The ΔpdxB mutant was transformed with either pSC101, pSC101-P5PAB, or pSC101-P5PAB + AfuC and grown in LB broth overnight at 37 °C with shaking. The starters were then washed twice with M9 medium and inoculated at an absorbance of 0.05 at 600 nm into M9 medium supplemented with P5P. The P5P concentrations used were 0, 1, 2.5, and 5 μM. Growth assays were performed in both culture tubes and 100-well microplates ([15], [17]). For cell growth in culture tubes, 5 ml of P5P-supplemented M9 was used, and readings of absorbance at 600 nm were measured after a 23-h incubation at 37 °C with shaking. For cell growth in 100-well microplates, 200 μl of P5P-supplemented M9 was applied to each well, and microplates were incubated in a Bioscreen C microplate reader (Growth Curves USA) at 37 °C with shaking. Absorbance values at 600 nm were measured every 15 min for a time course of 40 h.

A further experiment relates to AfuA E229A. The arrangement: method as in PMID 26295949. Particulars: AfuA E229A mutant; cited from earlier work.
The next experiment has as its system AfuA H205A. On the set-up: method as in PMID 26295949. As to conditions: AfuA H205A mutant; cited from earlier work.
Another experiment relates to AfuA D206A. The arrangement: method as in PMID 26295949. Particulars: AfuA D206A mutant; cited from earlier work.
Setting [6] is: MST, P5PA WT, n = 3, read-out: Kd.

By Kd is commonly meant the constant that tells how readily two partners part at equilibrium. Turning to `Cc1ncc(COP(=O)(O)O)c(C=O)c1O` [P5P, pyridoxal-5′-phosphate], the Kd stood at 0.036 ± 0.007 µM at P5PA WT [1]; 10 ± 4 µM at P5PA H203A; 17 ± 8 µM on P5PA Y103A; 1.3 ± 0.3 µM at P5PA T149A; 0.028 ± 0.015 µM at P5PA WT [2]. Also, in experiment [3], the “growth of pdxS/pdxT mutants” value is on record as “rescued growth”. In [4], the “growth of WT strain” value was “not affected by the concentration of supplemented P5P”. Further, the “growth defects of the four transformants and the ΔpdxB mutant” value in experiment [5] (M9, P5P at 5 μM) was “partially restored”. For the same compound, the “growth of ΔpdxB mutant expressing pSC101-P5PAB + AfuC” value in experiment [5] (M9, P5P at 1 and 2.5 μM, p < 0.01, two-tailed t test) is “rescued”. Further, the “growth of ΔpdxB mutant” value in experiment [5] (M9 minimal media, P5P 0 to 10 μM, 24 h incubation) was “severe growth deficiency in all conditions except P5P concentrations of 5 and 10 μM”.
As to `Cc1ncc(CO)c(CN)c1O` [PM, pyridoxamine], the Kd at P5PA WT [2] (setting [6]) was found to be 8000 ± 4000 µM.
Consider `Cc1ncc(CO)c(C=O)c1O` [PL, pyridoxal], for which the Kd at P5PA WT [2] (setting [6]) was found to be 13000 ± 4000 µM.
With `O=C[C@H](O)[C@@H](O)[C@H](O)[C@H](O)COP(=O)(O)O` [G6P, glucose-6-phosphate], the binding affinity result with AfuA E229A, in the experiment on AfuA H205A and in the experiment with AfuA D206A was “undetectable” in each case. Further, the binding activity entry at P5PA WT [1] (ITC, 300 μM ligand into 45 μM P5PA) was “no significant binding activity”. The “released heat for each titration” value on P5PA WT [1] (ITC, 300 μM ligand into 45 μM P5PA, insufficient to calculate a dissociation constant) is recorded as “approximately 3 kJ/mol”. The Kd at P5PA WT [2] (setting [6]) was determined as 11000 ± 3000 µM.
